Measured values: paper PMC6444592, “Citrullination of HP1γ chromodomain affects association with chromatin” (Epigenetics & Chromatin, 2019)

What was measured:
mESCs [1] = test: live-cell single-particle tracking, 13.5 ms, jump distance analysis; type: cell-based, mouse; conditions: 13.5 ms
Experimental: (§1) Parental E14 mouse embryonic stem cell (mESC) line was profiled by transcriptome analysis, qPCR and potency assays and was routinely tested for mycoplasma contamination and tested negative. Cells were cultured in DMEM (Gibco) supplemented with 15% standard FCS (Gibco), 0.1 mM non-essential amino acids (Gibco), 1% penicillin/streptomycin, 2 mM L-glutamine (Gibco), 1 mM sodium pyruvate (Gibco), 0.1 mM β-mercaptoethanol (Life Technologies) and 10^6 units/l mLIF (ESGRO, Millipore). E14 cells were stored in incubators at 37 °C in 7.5% CO2 (100% humidity) and maintained in 0.1% gelatin coated 10-cm culture dishes with 1:6 passaging every 2 days. Media was changed on a daily basis. E14 ESCs expressing mouse mEos3.2–HaloTag-HP1 fusion proteins were generated by transfecting appropriate pSB7 plasmids into E14 cells using Lipofectamine 2000 transfection reagent (Invitrogen), followed by selection in 600 µg/ml geneticin (Life Technologies). After 2 weeks of geneticin selection, cells were sorted using a Sony SH800S cell sorter for the expression of mEos3.2. Differentiation of ESCs was induced by LIF withdrawal. ESCs cultured in complete ES cell media (+ LIF) were trypsinised and washed twice in 1x PBS to remove residual LIF, seeded into ES cell media without LIF and incubated for 24, 48 or 72 h.
An IX73 Olympus inverted microscope was used with circularly polarised laser beams aligned and focused at the back aperture of an Olympus 1.40 NA 100 × oil objective (Universal Plan Super Apochromat, 100 × , NA 1.40, UPLSAPO100XO/1.4). Continuous wavelength diode laser light sources used include a 561-nm (Cobolt, Jive 200, 200 mW) and a 405-nm laser (Stradus, Toptica, 405–100, 100 mW). Oblique angle illumination was achieved by aligning the laser off axis such that the emergent beam at the sample interface was near-collimated and incident at an angle slightly less than the critical angle θc ~ 67° for a glass/water interface. This generated a ~ 50 μm diameter excitation footprint. The power of the collimated beams at the back aperture of the microscope was 10 kW/cm^2 and 10–100 W/cm^2 for the 561-nm and 405-nm laser beams, respectively. The lasers were reflected by dichroic mirrors (Semrock, Di01-R405/488/561/635). The fluorescence emission was collected through the same objective and then further filtered using a combination of long-pass and band-pass filters (BLP01-561R and FF01-587/35 for 561 nm excitation). The emission signal was projected onto an EMCCD (Photometrics, Evolve 512 Delta) with an electron multiplication gain of 250 ADU/photon operating in a frame transfer mode.
mESCs expressing mEos3.2–HaloTag-tagged HP1γ were passaged 2 days before imaging onto 35-mm glass bottom dishes No 1.0 (MatTek Corporation P35G-1.0-14-C Case) in phenol red-free serum and LIF conditions, if not stated otherwise. Just before single-particle tracking (SPT) imaging experiments, cells were labelled with 0.5 nM HaloTag–JF549 ligand for at least 15 min, followed by two washes in PBS and a 30-min incubation at 37 °C in media, before imaging the cells in fresh phenol red-free serum and LIF conditions. Cells were under-labelled to prevent overlap of fluorophores during SPT. Using 561 nm excitation, fluorescence images were collected as movies of 10,000 frames at 13.5 ms or 1000 to 5000 frames at 500 ms exposure. For live-cell tracking, data were collected for three biological replicates on separate dishes and the average values compared.
Live-cell 13.5-ms single-molecule traces were analysed using software that detects single-molecule trajectories from SPT movies. Briefly, the code detected puncta positions in each image frame using a brightness-weighted centroid after applying a band-pass filter to remove low-frequency background and high-frequency noise from the image data. To track the HP1 single molecules, only fluorescent puncta smaller than 3 pixels and with a signal to noise greater than 8 were analysed. […]

mESCs [2] = test: HP1γ foci formation, fluorescence imaging of mEos3.2; type: cell-based, mouse; conditions: +/− LIF 72 h
Experimental: as §1, with “After 2 weeks of geneticin selection, cells were sorted using a Sony SH800S cell sorter for the expression of mEos3.2. Differentiation of ESCs was induced by LIF withdrawal. ESCs cultured in complete ES cell media (+ LIF) were trypsinised and washed twice in 1x PBS to remove residual LIF, seeded into ES cell media without LIF and incubated for 24, 48 or 72 h.” left out
An IX73 Olympus inverted microscope was used with circularly polarised laser beams aligned and focused at the back aperture of an Olympus 1.40 NA 100 × oil objective (Universal Plan Super Apochromat, 100 × , NA 1.40, UPLSAPO100XO/1.4). […] The fluorescence emission was collected through the same objective and then further filtered using a combination of long-pass and band-pass filters (BLP01-561R and FF01-587/35 for 561 nm excitation). […]

Substance: HP1γWT: full-length mouse HP1γ wild type, as GST or mEos3.2–HaloTag fusion protein
- Diffusion coefficient, Bound (mESCs [1]; +LIF, replicate i): 0.100 µm2s-1
- Diffusion coefficient, Diffusing (mESCs [1]; +LIF, replicate i): 0.780 µm2s-1
- Percentage, Bound (mESCs [1]; +LIF, replicate i): 36.7%
- Percentage, Diffusing (mESCs [1]; +LIF, replicate i): 63.3%
- Diffusion coefficient, Bound (mESCs [1]; +LIF, replicate ii): 0.100 µm2s-1
- Diffusion coefficient, Diffusing (mESCs [1]; +LIF, replicate ii): 0.812 µm2s-1
- Percentage, Bound (mESCs [1]; +LIF, replicate ii): 30%
- Percentage, Diffusing (mESCs [1]; +LIF, replicate ii): 70%
- Diffusion coefficient, Bound (mESCs [1]; +LIF, replicate iii): 0.100 µm2s-1
- Diffusion coefficient, Diffusing (mESCs [1]; +LIF, replicate iii): 0.784 µm2s-1
- Percentage, Bound (mESCs [1]; +LIF, replicate iii): 32.4%
- Percentage, Diffusing (mESCs [1]; +LIF, replicate iii): 67.6%
- Diffusion coefficient, Bound (mESCs [1]; +LIF, replicate iv): 0.097 µm2s-1
- Diffusion coefficient, Diffusing (mESCs [1]; +LIF, replicate iv): 1.019 µm2s-1
- Percentage, Bound (mESCs [1]; +LIF, replicate iv): 49%
- Percentage, Diffusing (mESCs [1]; +LIF, replicate iv): 51%
- Diffusion coefficient, Bound (mESCs [1]; +LIF, replicate v): 0.089 µm2s-1
- Diffusion coefficient, Diffusing (mESCs [1]; +LIF, replicate v): 0.972 µm2s-1
- Percentage, Bound (mESCs [1]; +LIF, replicate v): 38.8%
- Percentage, Diffusing (mESCs [1]; +LIF, replicate v): 61.2%
- Percentage of molecules, diffusing (mESCs [1]; +LIF, mESCs, mean ± SD (n = 5–9)): 63%
- diffusion rate, effect of LIF withdrawal (mESCs [1]; −LIF 72 h versus +LIF): no significant effect
- Diffusion coefficient, Bound (mESCs [1]; −LIF, replicate i): 0.082 µm2s-1
- Diffusion coefficient, Diffusing (mESCs [1]; −LIF, replicate i): 0.733 µm2s-1
- Percentage, Bound (mESCs [1]; −LIF, replicate i): 51.4%
- Percentage, Diffusing (mESCs [1]; −LIF, replicate i): 48.6%
- Diffusion coefficient, Bound (mESCs [1]; −LIF, replicate ii): 0.092 µm2s-1
- Diffusion coefficient, Diffusing (mESCs [1]; −LIF, replicate ii): 0.912 µm2s-1
- Percentage, Bound (mESCs [1]; −LIF, replicate ii): 51%
- Percentage, Diffusing (mESCs [1]; −LIF, replicate ii): 49%
- Diffusion coefficient, Bound (mESCs [1]; −LIF, replicate iii): 0.100 µm2s-1
- Diffusion coefficient, Diffusing (mESCs [1]; −LIF, replicate iii): 1.037 µm2s-1
- Percentage, Bound (mESCs [1]; −LIF, replicate iii): 31.3%
- Percentage, Diffusing (mESCs [1]; −LIF, replicate iii): 68.7%
- Diffusion coefficient, Bound (mESCs [1]; −LIF, replicate iv): 0.100 µm2s-1
- Diffusion coefficient, Diffusing (mESCs [1]; −LIF, replicate iv): 1.007 µm2s-1
- Percentage, Bound (mESCs [1]; −LIF, replicate iv): 30.9%
- Percentage, Diffusing (mESCs [1]; −LIF, replicate iv): 69.1%
- Diffusion coefficient, Bound (mESCs [1]; −LIF, replicate v): 0.100 µm2s-1
- Diffusion coefficient, Diffusing (mESCs [1]; −LIF, replicate v): 0.930 µm2s-1
- Percentage, Bound (mESCs [1]; −LIF, replicate v): 27.9%
- Percentage, Diffusing (mESCs [1]; −LIF, replicate v): 72.1%
- foci formation, WT- versus R38/9A-expressing cells (mESCs [2]): no apparent difference
